Data on three molecules can be found in US20050169863A1, “2-Thioacetamide compositions for stimulating the growth of keratin fibers and/or for reducing loss thereof” (L'OREAL, priority 2003, published 2005).

One assay concerns the target T1, 15-PGDH (Homo sapiens, UniProt P15428).
T1 construct: made in house
T1 sequence (P15428 1-266): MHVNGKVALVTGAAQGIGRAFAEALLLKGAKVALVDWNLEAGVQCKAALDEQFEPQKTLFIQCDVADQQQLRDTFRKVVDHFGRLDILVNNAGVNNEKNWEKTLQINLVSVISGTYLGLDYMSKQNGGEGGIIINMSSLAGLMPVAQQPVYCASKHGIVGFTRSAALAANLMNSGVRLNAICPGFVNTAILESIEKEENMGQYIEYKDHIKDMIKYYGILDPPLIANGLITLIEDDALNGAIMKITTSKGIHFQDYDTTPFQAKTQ
The experiment in a line: Test on 15-PGDH (spectrophotometric, 340 nm, PGE2/β-NAD). In kind it is biochemical. To be noted: for Inhibition of 15-PGDH % inhibition at 50 μm: compound at 50 μm, pH 7.4. As to the method: The enzyme 15-PGDH is obtained as described in patent application FR 02/05067 filed in the name of L'Oréal, as a suspension in a medium adjusted to a concentration of 0.3 mg/mL and then blocked at −80° C. For the purposes of the test, this suspension is thawed and stored in ice.
In parallel, a 100 mM, pH 7.4 Tris buffer containing 0.1 mM of dithiothreitol (D5545, Sigma-Aldrich, L'isle D'Abeau Chesne, BP 701, 38297, Saint Quentin Fallavier), 1.5 mM of β-NAD (N6522, Sigma-Aldrich, L'isle D'Abeau Chesne, BP 701, 38297, Saint Quentin Fallavier), and 50 μM of prostaglandin E2 (P4172, Sigma-Aldrich, L'isle D'Abeau Chesne, BP 701, 38297, Saint Quentin Fallavier) is prepared.
0.965 ml of this buffer (brought to 37° C. beforehand) is introduced into the cuvette of a spectrophotometer (Perkin-Elmer, Lambda 2) thermostatically maintained at 37° C., the measuring wavelength of which is set at 340 nm. 0.035 mL of enzymatic suspension at 37° C. is introduced into the cuvette concomitantly with the recording (corresponding to an increase in the optical density at 340 nm). The maximum reaction rate is recorded.
The test values (containing the compounds (I)) are compared with the control value (without compound (I)); the results indicated represent the concentration at which the compound of formula (I) reduces the anzymatic activity of 15-PGDH by 50%, namely IC50dh.

Another assay deals with T2, PGF synthase (PGFS) (Homo sapiens, UniProt P42330).
T2 construct: made in house
T2 sequence (P42330 1-323): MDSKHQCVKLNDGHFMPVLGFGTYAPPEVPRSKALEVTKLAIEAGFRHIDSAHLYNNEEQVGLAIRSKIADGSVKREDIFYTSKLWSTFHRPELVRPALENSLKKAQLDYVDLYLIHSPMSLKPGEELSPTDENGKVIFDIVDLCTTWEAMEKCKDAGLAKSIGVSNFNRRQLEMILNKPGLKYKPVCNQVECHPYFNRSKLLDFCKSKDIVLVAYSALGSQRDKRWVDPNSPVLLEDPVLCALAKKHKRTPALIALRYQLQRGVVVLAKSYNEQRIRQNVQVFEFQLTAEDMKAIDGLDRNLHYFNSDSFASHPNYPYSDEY
The assay is described as follows: Test on PGF synthase (spectrophotometric, 340 nm, 9,10-phenanthrenequinone/β-NADPH). In kind it is biochemical. To be noted: IC50fs; 37° C., pH 6.5 Tris buffer, 20 μM 9,10-phenanthrenequinone, 100 μM β-NADPH. The procedure:
The enzyme PGFS is obtained as described in document FR-A-02/05067, at a concentration of 0.5 mg/mL, as a suspension in a suitable medium, and blocked at −80° C. For the purposes of the test, this suspension is thawed and stored in ice.
In parallel, a 100 mM, pH 6.5 Tris buffer containing 20 μM of 9,10-phenanthrenequinone* (P2896, Sigma-Aldrich, L'isle D'Abeau Chesne, BP 701, 38297, Saint Quentin Fallavier) and 100 μM of β-NADPH (N1630, Sigma-Aldrich, L'isle D'Abeau Chesne, BP 701, 38297, Saint Quentin Fallavier) is prepared in a brown flask (protected from light).
*A stock solution with a titre of 1 mM is prepared in absolute ethanol and brought to 40° C.; the flask is placed in an ultrasound cuvette to facilitate the dissolution of the product.
0.950 mL of this buffer (brought to 37° C. beforehand) is introduced into the cuvette of a spectrophotometer (Perkin-Elmer, Lambda 2) thermostatically maintained at 37° C., the measuring wavelength of which is set at 340 nm. 0.05 mL of enzymatic suspension at 37° C. is introduced into the cuvette concomitantly with the recording (corresponding to a reduction in the optical density at 340 nm). The maximum reaction rate is recorded. […]

Structures are written as SMILES. Where only a bound is given, the exact number is not on record here.

For orientation: IC50 means the midpoint of a concentration-inhibition curve.

Turning to `O=C(CSc1nc2ccccc2s1)NC1CCCC1` [Compound 1], the IC50 is 5 µM at 15-PGDH (IC50dh, 37° C., pH 7.4 Tris buffer, 50 μM prostaglandin E2, 1.5 mM β-NAD, read-out: Inhibition of 15-PGDH IC50) and at least 50 µM on PGF synthase (PGFS). Moreover, the “Inhibition of 15-PGDH % inhibition at 50 μm” value at 15-PGDH (37° C.) stood at 89%. The IC50fs/IC50dh ratio result at 15-PGDH (selectivity: PGF synthase IC50 over 15-PGDH IC50) is given as “greater than 10”.
For `CC(=O)c1ccc(C#N)c(SCC(=O)Nc2cc(Cl)cc(Cl)c2)n1` [Compound 2], the “Inhibition of 15-PGDH % inhibition at 50 μm” value at 15-PGDH (37° C.) is 30%.
Consider `O=C(CSc1nnc2sc3ccccc3n12)Nc1ccc(Br)cc1` [Compound 3], for which, on 15-PGDH (37° C.), the “Inhibition of 15-PGDH % inhibition at 50 μm” value turned out to be 26%.
